Measurements published in PubChem BioAssay AID328 (DTP/NCI, 2004).
Several values for one entry are separate records, joined by “and”; a condition that tells them apart may be missing. Equal entries are not always repeated. Inconclusive results and toxic doses are left out. The calls were made as follows: active = survival T/C of 150% or more; inactive = T/C below 125% in these data.

Test system: BDF1 mice, P388 leukemia ip, median survival T/C
Assay: NCI In Vivo Anticancer Drug Screen. Data for tumor model P388 Leukemia (intraperitoneal) in B6D2F1 (BDF1) mice
Conditions: endpoint: median survival time, higher = longer survival
Outline: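 Each value expresses how treatment altered survival: treated-mouse outcome over vehicle-mouse outcome, both groups bearing the transplanted tumour.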

[1] = dose: 3.12 mg/kg/injection, schedule: Q01DX009 (ip), vehicle: Klucel (hydroxypropylcellulose) (HPC)
[2] = dose: 12.5 mg/kg/injection, schedule: Q01DX009 (ip), vehicle: Klucel (hydroxypropylcellulose) (HPC)
[3] = dose: 50.0 mg/kg/injection, schedule: Q01DX009 (ip), vehicle: Klucel (hydroxypropylcellulose) (HPC)
[4] = dose: 200.0 mg/kg/injection, schedule: Q01DX009 (ip), vehicle: Klucel (hydroxypropylcellulose) (HPC)
[5] = dose: 100.0 mg/kg/injection, schedule: Q01DX009 (ip), vehicle: saline with Tween-80
[6] = dose: 200.0 mg/kg/injection, schedule: Q01DX009 (ip), vehicle: saline with Tween-80
[7] = dose: 400.0 mg/kg/injection, schedule: Q01DX009 (ip), vehicle: saline with Tween-80
[8] = dose: 100.0 mg/kg/injection, schedule: Q04DX003 (ip), vehicle: Klucel (hydroxypropylcellulose) (HPC)
[9] = dose: 200.0 mg/kg/injection, schedule: Q04DX003 (ip), vehicle: Klucel (hydroxypropylcellulose) (HPC)
[10] = dose: 400.0 mg/kg/injection, schedule: Q04DX003 (ip), vehicle: Klucel (hydroxypropylcellulose) (HPC)

Measured: T/C

CNC(=S)N/N=C/C(C)=N/NC(=S)NC
inactive: dose: 1.6 mg/kg/injection, schedule: Q01DX009 (ip), vehicle: Klucel (hydroxypropylcellulose) (HPC) 113 % of control | [1] 104 % of control | [2] 104 % of control | [3] 100 % of control | [4] 100 % of control | dose: 125.0 micrograms/kg/injection, schedule: Q01DX009 (ip), vehicle: saline 109 % of control | dose: 250.0 micrograms/kg/injection, schedule: Q01DX009 (ip), vehicle: saline 109 % of control | dose: 500.0 micrograms/kg/injection, schedule: Q01DX009 (ip), vehicle: saline 109 % of control | dose: 1000.0 micrograms/kg/injection, schedule: Q01DX009 (ip), vehicle: saline 109 % of control

O=C(O)c1c(Cl)cc(Cl)c(-c2c(Cl)cc(Cl)c(C(=O)O)c2Cl)c1Cl
inactive: [5] 112 % of control | [6] 108 % of control | [7] 108 % of control

OCCOCCN1CCN(CCCN2c3ccccc3Sc3ccc(C(F)(F)F)cc32)CC1
inactive: dose: 1.56 mg/kg/injection, schedule: Q01DX009 (ip), vehicle: saline 109 % of control | dose: 12.5 mg/kg/injection, schedule: Q04DX003 (ip), vehicle: saline 113 % of control and 120 % of control | dose: 50.0 mg/kg/injection, schedule: Q04DX003 (ip), vehicle: saline 117 % of control

CCN1CCCC(Nc2cc(C)nc(Nc3nc4cc(Cl)c(Cl)cc4[nH]3)n2)C1 (configuration not stated)
inactive: dose: 1.56 mg/kg/injection, schedule: Q01DX009 (ip), vehicle: Klucel (hydroxypropylcellulose) (HPC) 100 % of control | [1] 90 % of control | dose: 6.25 mg/kg/injection, schedule: Q01DX009 (ip), vehicle: Klucel (hydroxypropylcellulose) (HPC) 100 % of control

CC(C)(N)COS(=O)(=O)O
inactive: dose: 50.0 mg/kg/injection, schedule: Q01DX009 (ip), vehicle: saline 100 % of control | dose: 100.0 mg/kg/injection, schedule: Q01DX009 (ip), vehicle: saline 90 % of control and 100 % of control | dose: 100.0 mg/kg/injection, schedule: Q04DX003 (ip), vehicle: saline 100 % of control | dose: 200.0 mg/kg/injection, schedule: Q01DX009 (ip), vehicle: saline 95 % of control | dose: 200.0 mg/kg/injection, schedule: Q04DX003 (ip), vehicle: saline 100 % of control | dose: 400.0 mg/kg/injection, schedule: Q01DX009 (ip), vehicle: saline 100 % of control | dose: 400.0 mg/kg/injection, schedule: Q04DX003 (ip), vehicle: saline 100 % of control

C[C@]12CC[C@H]3[C@@H](CCC4=C[C@@H](OC5OCC(OC6OC(CO)C(O)C(O)C6O)C(O)C5O)CC[C@@]43C=O)[C@@]1(O)CCC2C1=CC(=O)OC1 (some centres not stated)
inactive: dose: 2.5 mg/kg/injection, schedule: Q01DX009 (ip), vehicle: saline 122 % of control | dose: 5.0 mg/kg/injection, schedule: Q01DX009 (ip), vehicle: saline 111 % of control

CC(=O)[C@H]1CC[C@H]2[C@@H]3C[C@H](F)C4=CC(=O)CC[C@]4(C)[C@@]3(F)[C@@H](O)C[C@]12C
inactive: dose: 12.0 mg/kg/injection, schedule: Q01DX009 (ip), vehicle: Klucel (hydroxypropylcellulose) (HPC) 122 % of control | [2] 115 % of control | dose: 25.0 mg/kg/injection, schedule: Q01DX009 (ip), vehicle: Klucel (hydroxypropylcellulose) (HPC) 100 % of control and 103 % of control | [3] 90 % of control and 100 % of control | [8] 95 % of control and 113 % of control | [9] 95 % of control and 113 % of control | [10] 95 % of control and 104 % of control and 109 % of control

O=C(/C=C/c1ccccc1Cl)NCC(O)CO (configuration not stated)
inactive: dose: 50.0 mg/kg/injection, schedule: Q01DX009 (ip), vehicle: saline with Tween-80 100 % of control | [5] 100 % of control | [6] 95 % of control | dose: 400.0 mg/kg/injection, schedule: Q01DX009 (ip), vehicle: other 91 % of control | [7] 90 % of control

O=C(N/N=C/c1cccc(Cl)c1)c1ccccc1
inactive: dose: 100.0 mg/kg/injection, schedule: Q04DX003 (ip), vehicle: other 95 % of control | dose: 200.0 mg/kg/injection, schedule: Q04DX003 (ip), vehicle: other 95 % of control | dose: 400.0 mg/kg/injection, schedule: Q04DX003 (ip), vehicle: other 113 % of control

CC(=O)N1CCCC1=O
inactive: dose: 100.0 mg/kg/injection, schedule: Q01DX009 (ip), vehicle: Klucel (hydroxypropylcellulose) (HPC) 95 % of control | [8] 100 % of control | [4] 86 % of control | [9] 100 % of control | [10] 100 % of control
